What was measured:
MAPK14 = MAPK14 (UniProt Q16539); test: p38 --- TNF-alpha Inhibition; settings: for IC50: thp1
MAPK14 (human) = MAPK14 (human) (UniProt Q16539); test: p38 Kinase Inhibition
Chain of MAPK14 (human) (Q16539 whole entry, looked up): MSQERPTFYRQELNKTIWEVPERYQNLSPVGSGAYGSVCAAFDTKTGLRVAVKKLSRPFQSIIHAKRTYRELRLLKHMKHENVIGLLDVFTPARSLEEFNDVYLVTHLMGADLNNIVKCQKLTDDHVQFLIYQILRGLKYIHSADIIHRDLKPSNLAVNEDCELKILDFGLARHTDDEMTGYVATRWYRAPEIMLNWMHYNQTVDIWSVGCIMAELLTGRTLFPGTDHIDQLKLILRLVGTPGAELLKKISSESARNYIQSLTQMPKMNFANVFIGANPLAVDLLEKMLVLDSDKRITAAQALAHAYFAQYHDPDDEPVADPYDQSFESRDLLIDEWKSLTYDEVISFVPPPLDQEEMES

Chain of MAPK14 (Q16539 whole entry, looked up): as above

Row | Structure (SMILES) | IC50 (MAPK14) [nM] | IC50 (MAPK14 (human)) [nM] | inhibition (MAPK14; thp1, concentration not given here) [%]
1 | Clc1cccc(-c2nc3cccccc-3c2-c2ccncc2)c1 | 1420 | 4960 | 
2 | Cc1ccc(-c2nc3cccccc-3c2-c2ccncc2)cc1 | 263 | 4760 | 
3 | CSc1nccc(-c2c3cccccc-3nc2-c2ccc(F)cc2)n1 | 4510 | 2590 | 
4 | Fc1cc(-c2c3cccccc-3nc2-c2cccc(Cl)c2)ccn1 | 950 | 935 | 
5 | FC(F)(F)c1cccc(-c2nc3cccccc-3c2-c2ccncc2)c1 | 160 | 1470 | 
6 | Clc1ccc(-c2nc3cccccc-3c2-c2ccncc2)cc1 | 1400 | 2790 | 
7 | Fc1ccc(-c2nc3cccccc-3c2-c2ccnc(F)c2)cc1 | 1560 | 3280 | 
8 | CNc1nccc(-c2c3cccccc-3nc2-c2ccc(F)cc2)n1 | 1710 | 17100 | 
9 | Fc1ccc(-c2nc3cccccc-3c2-c2ccncc2)cc1 | 230 | 1340 | 
10 | COc1ccc(-c2nc3cccccc-3c2-c2ccncc2)cc1 |  | 24100 | 37
11 | CNc1nccc(-c2c3cccccc-3nc2-c2cccc(C(F)(F)F)c2)n1 | 675 | 2850 | 
12 | Fc1cc(-c2c3cccccc-3nc2-c2cccc(C(F)(F)F)c2)ccn1 | 1610 | 12100 | 
